Consider 3 molecules from US20230033911A1, “BIOACTIVE COMPOSITIONS AND METHODS OF USE THEREOF” (Ingenious Ingredients, LP, priority 2021, published 2023).

What all share (assay type): in vivo
In assay [1] the test system is Swiss Albino mice. The assay is described as follows: Forelimb grip strength test. The conditions noted are these: oral once a day for 28 days; measured on day 0 and day 28, one hour after treatment. On the procedure: (§1) Thirty-two 8-week-old male Swiss Albino mice were housed in an animal room at a constant temperature (22±3° C.) and humidity (30%-70%) under a 12:12 h light-dark cycle with standard laboratory diet (Purina 5L79, Rat and Mouse 18% protein; PMI Nutrition International, Brentwood, Mo., USA). Distilled water was provided ad libitum. All animal experiments were reviewed and approved by the Institutional Animal Ethical Committee (IAEC) of Radiant Research Services Pvt. Ltd (Bangalore, India). All research was conducted in accordance with the guidelines of the committee for the purpose of control and supervision of experiments on animals.
After one week of acclimation, the animals were randomly divided by body weight into four groups (n=8 per group in each test) for oral treatment once a day, at approximately same time each day (±1 hour), for 28 consecutive days: (1) vehicle control or (2) paraxanthine or (3) tyrosine or (4) tyrosine plus paraxanthine. The dose administered to the mice was calculated using US Food and Drug Administration for human equivalence doses (HED), assuming a human weight of 60 kg. […] Food intake was monitored daily while water intake was ad libitum.
The forelimb grip strength was measured on day 0 and day 28 by using a stainless-steel grill to assess muscle strength (Orchid Scientific & Innovative India Pvt Ltd, India). Grip strength was measured one hour after treatment. […]

Assay [2] deals with Swiss Albino mice. In words: Force swim test, paraxanthine plus taurine study (Example 3). The following applies: 30 min force swim on 28th day; oral once a day for 28 days; n=8. Here is the method:
as §1, with “Twenty-four” for “Thirty-two”
(§2) After one week of acclimation, the animals were randomly divided by body weight into three groups (n=8 per group in each test) for oral treatment once a day, at approximately same time each day (±1 hour), for 28 consecutive days: (1) paraxanthine or (2) taurine or (3) taurine plus paraxanthine. The dose administered to the mice was calculated using US Food and Drug Administration for human equivalence doses (HED), assuming a human weight of 60 kg. The following HED was used in this study: 100 mg paraxanthine (ENFINITY®, Ingenious Ingredients, L.P Lewisville, Tex., USA; mouse dose: 20.5 mg/kg bw/day) or 500 mg taurine (mouse dose: 102.75 mg/kg bw/day), or 500 mg taurine (mouse dose: 102.75 mg/kg bw/day) plus 100 mg paraxanthine (ENFINITY®, Ingenious Ingredients, L.P Lewisville, Tex., USA; mouse dose: 20.5 mg/kg bw/day). 0.5% Carboxy Methyl Cellulose sodium was used as vehicle and the test item formulations were prepared daily. Dosing was conducted via oral gavage using disposable polypropylene syringes with sterilized stainless steel gavage tubes. Food intake was monitored daily while water intake was ad libitum.
During treatment period, training was accomplished on a swimming chamber at a moderate room temperature for 15 mins. The animals were adapted to this procedure daily 1 hr after dosing for 5 days in a week during the treatment period. On 28th day of respective treatment of all the animals were subjected to force swim test. Animals were forced to swim individually for 30 min in a glass jar of height 20 cm, diameter 10 cm, and filled with fresh water to a depth of 15 cm at room temperature. The parameter measured was total time spent in active swimming (the total duration during which the animal swims throughout the experimental period) and duration of immobility (the total time during which the animal is immobile).

Assay [3] deals with Swiss Albino mice. In words: Cook's pole climbing test after scopolamine-induced amnesia. The following applies: for Escape latency: Cook's pole climbing test, scopolamine i.p., n=8; for Escape latency, faster than control: relative to vehicle control. On the procedure:
Behavioral studies were conducted in mice to examine the learning and memory ability by using Cook's pole test.
as §1
as §2, with “four” for “three”, “7” for “28”, “(1) vehicle control or (2)” for “(1)”, “(3) tyrosine” for “(2) taurine”, “(4) tyrosine” for “(3) taurine”, “tyrosine” for “taurine”
Mice were trained in such a way that the animal had to climb the pole (shock free zone) within 30 seconds to avoid a shock. The shock was preceded by a buzzer that lasted for 15 seconds. The animals were trained to climb the pole at the sound of the buzzer (conditioned avoidance response). At particular intervals, 20 trials were given for each animal and average of the shock avoidance and mistakes were recorded. Trained animals were assayed by conditioned avoidance responses.
Amnesia was induced by using the scopolamine injection. Scopolamine is an anti-cholinergic and is an attractive amnesic agent for discerning the action of candidate anti amnesic drugs. Scopolamine is a non-selective post synaptic muscarinic receptor blocker and can cause cognitive impairments in rodents and humans via decreasing the effectiveness of ACH in the CNS in animals and humans. Scopolamine can induce the significant deficits in cognitive performance on behavioral tests which makes it a valid pharmacological model for inducing cognitive deficits. In this study to evaluate the cognitive effect, the mice were injected with scopolamine intraperitoneally to induce memory deficits.

The subject of assay [4] is Swiss Albino mice. In words: Force swim test, paraxanthine plus tyrosine study (Example 2). The conditions noted are these: oral once a day for 28 days; for Duration of mobility/active swimming: 30 min force swim on 28th day, n=8. On the procedure: as §1
as §2, with “four” for “three”, “(1) vehicle control or (2)” for “(1)”, “(3) tyrosine” for “(2) taurine”, “(4) tyrosine” for “(3) taurine”, “tyrosine” for “taurine”
During treatment period, training was accomplished on a swimming chamber at a moderate room temperature for 15 mins. […] The parameters measured were total time spent in active swimming (the total duration during which the animal swims throughout the experimental period).

In the case of `Cn1c(=O)[nH]c2ncn(C)c2c1=O` [paraxanthine], in the assay with Swiss Albino mice [1], the “Forelimb grip strength (in words, FIG. 1)” value is listed as “improved strength over control”. In the assay with Swiss Albino mice [2], the Duration of immobility was 21.38 ± 1.92 min and the “Duration of mobility/active swimming” value came out at 8.63 ± 1.92 min. For the same molecule, in the assay with Swiss Albino mice [3] (oral once a day for 7 days), the Escape latency was 16.38 ± 2.33 s; the “Effect on scopolamine-induced amnesia, memory and learning (in words)” value was “reversal of amnesia induced by scopolamine and improved memory and learning”. For the same molecule, the “Escape latency, faster than control” value in the assay with Swiss Albino mice [3] is 46.3%. Further, in the assay with Swiss Albino mice [4], the “Duration of mobility/active swimming” value came to 8.63 ± 1.92 min. Also, the “Energy and mood (in words)” value with Swiss Albino mice [4] (force swim test on 28th day) was “improved energy and mood”.
On to `NCCS(=O)(=O)O` [taurine], for which, in the assay with Swiss Albino mice [2], the Duration of immobility is 21.50 ± 2.20 min and the “Duration of mobility/active swimming” value amounted to 8.50 ± 2.20 min.
Take `N[C@@H](Cc1ccc(O)cc1)C(=O)O` [tyrosine]: the “Forelimb grip strength (in words, FIG. 1)” value with Swiss Albino mice [1] is on record as “improved strength at a lesser degree”. Moreover, the Escape latency in the assay with Swiss Albino mice [3] (oral once a day for 7 days) amounted to 8.25 ± 1.04 s. Besides, the “Escape latency, slower than paraxanthine” value in the assay on Swiss Albino mice [3] (relative to paraxanthine group) came out at 29.3%. In addition, the “Escape latency, faster than control” value in the assay on Swiss Albino mice [3] is 30.6%. Also, the “Duration of mobility/active swimming” value in the assay with Swiss Albino mice [4] turned out to be 8.88 ± 1.46 min.
